According to the supplement of paper PMC10307832:

Tests used:
Assay in all cases: relative viability (nuclei count vs DMSO), 5 days (fraction); higher = more cells survive
CAP-232 + Olaparib = compound: C[C@H]([C@@H](C(=O)N)NC(=O)[C@@H]1CSSC[C@@H](C(=O)N[C@H](C(=O)N[C@@H](C(=O)N[C@H](C(=O)N1)CCCCN)CC2=CNC3=CC=CC=C32)CC4=CC=C(C=C4)O)NC(=O)[C@@H](CC5=CC=CC=C5)N)O [CAP-232] + O=C(c1cc(Cc2n[nH]c(=O)c3ccccc23)ccc1F)N1CCN(C(=O)C2CC2)CC1 [Olaparib] (partner 8 µM)
How it was run: (§1)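 Relative viability divides the nuclei count in treated wells by that in vehicle wells. Lung cancer cell lines were seeded in 1536-well plates, dosed by pin tool the next day, and fixed and stained after 5 days in one step with final 0.05% Triton X-100, 1% formaldehyde and 1 ug/ml Hoechst. Dosing was a single drug or a fixed anchor-drug dose plus five library-drug doses (not always all listed) in √10 steps, and values are medians of duplicate plates imaged at 4×.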

CAP-232 + Tozasertib = compound: C[C@H]([C@@H](C(=O)N)NC(=O)[C@@H]1CSSC[C@@H](C(=O)N[C@H](C(=O)N[C@@H](C(=O)N[C@H](C(=O)N1)CCCCN)CC2=CNC3=CC=CC=C32)CC4=CC=C(C=C4)O)NC(=O)[C@@H](CC5=CC=CC=C5)N)O [CAP-232] + Cc1cc(Nc2cc(N3CCN(C)CC3)nc(Sc3ccc(NC(=O)C4CC4)cc3)n2)n[nH]1 [Tozasertib] (partner 0.1 µM)
How it was run: as §1

CAP-232 + OSI-027 = compound: C[C@H]([C@@H](C(=O)N)NC(=O)[C@@H]1CSSC[C@@H](C(=O)N[C@H](C(=O)N[C@@H](C(=O)N[C@H](C(=O)N1)CCCCN)CC2=CNC3=CC=CC=C32)CC4=CC=C(C=C4)O)NC(=O)[C@@H](CC5=CC=CC=C5)N)O [CAP-232] + COc1cccc2cc(-c3nc([C@H]4CC[C@H](C(=O)O)CC4)n4ncnc(N)c34)[nH]c12 [OSI-027] (partner 0.5 µM)
How it was run: as §1

CAP-232 + Navitoclax = compound: C[C@H]([C@@H](C(=O)N)NC(=O)[C@@H]1CSSC[C@@H](C(=O)N[C@H](C(=O)N[C@@H](C(=O)N[C@H](C(=O)N1)CCCCN)CC2=CNC3=CC=CC=C32)CC4=CC=C(C=C4)O)NC(=O)[C@@H](CC5=CC=CC=C5)N)O [CAP-232] + CC1(C)CCC(c2ccc(Cl)cc2)=C(CN2CCN(c3ccc(C(=O)NS(=O)(=O)c4ccc(N[C@H](CCN5CCOCC5)CSc5ccccc5)c(S(=O)(=O)C(F)(F)F)c4)cc3)CC2)C1 [Navitoclax] (partner 0.5 µM)
How it was run: as §1

CAP-232 + Trametinib = compound: C[C@H]([C@@H](C(=O)N)NC(=O)[C@@H]1CSSC[C@@H](C(=O)N[C@H](C(=O)N[C@@H](C(=O)N[C@H](C(=O)N1)CCCCN)CC2=CNC3=CC=CC=C32)CC4=CC=C(C=C4)O)NC(=O)[C@@H](CC5=CC=CC=C5)N)O [CAP-232] + CC(=O)Nc1cccc(-n2c(=O)n(C3CC3)c(=O)c3c(Nc4ccc(I)cc4F)n(C)c(=O)c(C)c32)c1 [Trametinib] (partner 0.02 µM)
How it was run: as §1

Cell Line	relative viability (CAP-232 + Olaparib; first compound 0.4 µM)	relative viability (CAP-232 + Olaparib; first compound 1.265 µM)	relative viability (CAP-232 + Olaparib; first compound 4 µM)	relative viability (CAP-232 + Olaparib; first compound 12.65 µM)	relative viability (CAP-232 + Tozasertib; first compound 0.4 µM)	relative viability (CAP-232 + Tozasertib; first compound 1.265 µM)	relative viability (CAP-232 + Tozasertib; first compound 4 µM)	relative viability (CAP-232 + Tozasertib; first compound 12.65 µM)	relative viability (CAP-232 + OSI-027; first compound 0.4 µM)	relative viability (CAP-232 + OSI-027; first compound 1.265 µM)	relative viability (CAP-232 + OSI-027; first compound 4 µM)	relative viability (CAP-232 + OSI-027; first compound 12.65 µM)	relative viability (CAP-232 + Navitoclax; first compound 0.4 µM)	relative viability (CAP-232 + Navitoclax; first compound 1.265 µM)	relative viability (CAP-232 + Navitoclax; first compound 4 µM)	relative viability (CAP-232 + Navitoclax; first compound 12.65 µM)	relative viability (CAP-232 + Trametinib; first compound 0.4 µM)	relative viability (CAP-232 + Trametinib; first compound 1.265 µM)	relative viability (CAP-232 + Trametinib; first compound 4 µM)	relative viability (CAP-232 + Trametinib; first compound 12.65 µM)
LC-2-ad	0.726	0.738	0.768	0.7	0.518	0.478	0.439	0.267	0.954	0.852	0.756	0.559	0.428	0.363	0.497	0.33	0.967	0.925	0.936	0.884
LCLC-97TM1	0.418	0.421	0.346	0.438	0.22	0.189	0.204	0.194	0.437	0.523	0.601	0.486	0.408	0.294	0.397	0.366	0.143	0.184	0.154	0.188
LK-2	0.762	0.834	0.702	0.811	0.147	0.199	0.163	0.147	0.197	0.18	0.231	0.175	0.733	0.791	1.01	0.622	0.438	0.687	0.711	0.563
LOU-NH91	0.945	0.873	0.907	0.574	0.574	0.68	0.618	0.511	0.756	0.775	0.72	0.675	0.729	0.734	0.665	0.437	0.834	0.811	0.783	0.445
LU99A	0.233	0.232	0.332	0.306	0.253	0.263	0.296	0.287	0.263	0.267	0.276	0.313	1.03	0.818	0.864	0.78	0.283	0.634	0.553	0.444
LXF-289	1.09	1.07	1.12	1.08	0.206	0.176	0.213	0.149	0.824	0.721	0.805	0.741	0.998	0.956	0.964	0.959	0.657	0.687	0.657	0.713
NCI-H23	0.34	0.301	0.306	0.27	0.416	0.386	0.384	0.309	0.64	0.529	0.687	0.487	0.806	0.861	0.982	0.713	0.339	0.435	0.439	0.28
NCI-H322M	0.939	0.746	0.745	0.697	0.448	0.5	0.515	0.498	0.569	0.528	0.52	0.437	1.32	1.26	1.36	1.13	0.46	0.514	0.497	0.539
NCI-H441	0.482	0.551	0.595	0.429	0.628	0.58	0.571	0.653	0.527	0.683	0.602	0.686	0.554	0.756	0.717	0.641	0.431	0.41	0.479	0.501
NCI-H460	0.515	0.384	0.526	0.332	0.487	0.463	0.634	0.396	0.767	0.739	0.825	0.275	1.02	1.36	1.11	0.542	0.134	0.208	0.165	0.0175
NCI-H520	0.349	0.304	0.321	0.303	0.439	0.405	0.395	0.354	0.258	0.31	0.304	0.3	1.03	0.997	1.13	0.582	0.559	0.637	0.799	0.521
NCI-H596	0.713	0.612	0.583	0.641	0.962	1.04	0.886	0.821	0.767	0.726	0.884	0.633	0.839	1	1.08	0.987	0.901	0.675	0.851	0.765
NCI-H647	0.699	0.7	0.635	0.373	0.216	0.259	0.269	0.276	0.576	0.775	0.739	0.577	1.35	1.27	1.31	1.09	0.321	0.504	0.564	0.249
